Data published in patent US20120070392A1, “COMPOSITION FOR INHIBITING ERYTHEMA CAUSED BY ULTRAVIOLET RADIATION CONTAINING A DIPEPTIDE AS ACTIVE INGREDIENT” (priority 2009, published 2012).

System: PGE2 production
Test: Inhibition of UVB-induced PGE2 production in cultured human keratinocytes (PGE2 assay kit, calibrated with MTT absorbance)
Assay type: cell-based
Details: not given
Procedure: Human keratinocytes were seeded at a density of 1×10^5 cells/well to 6-well plates containing 2 mL of KGM(keratinocyte growth medium, Clonetics, San Diego, Calif., USA) per well and cultured overnight. Then, the medium was replaced with KBM(keratinocyte basal medium) supplemented with 0.1% BSA(bovine serum albumin) and the cells were cultured for an additional 24 hours. Subsequently, the cells were pre-treated for an additional 24 hours with 2 mL of the same medium containing 10 μg/ml of each of the dipeptides listed in Table 1. […] The pre-treated medium was transferred to new 24 well plates and 1 mL of DPBS(Dulbecco's phosphate buffered saline) was added to the cells in each well. During UV irradiation, the transferred medium was stored in a cell incubator. […] At this time, the control was covered with aluminum foil. After the removal of DPBS, the transferred medium was returned to each well. The cells were further cultured for 24 hours, after which 1 mL of the medium was transferred to microcentrifuge tubes. […] The supernatants were then removed and the formazan crystals were solubilized in 1 ml of DMSO(dimethylsulfoxide). One hundred μL of the solution was transferred to each well of 96-well plates and an optical density was determined at 540 nm using an ELISA(enzyme-linked immunosorbent assay) reader. […] The concentration of PGE2 was determined using a PGE2 Assay Kit(KGE004, R&D Systems, Inc., Minneapolis, Minn., USA) according to the manufacturer's instruction. […] After removal of the reaction, the wells were washed five times with 400 μL of wash buffer. To each well was added 200 μL of a substrate solution, followed by incubation for 20 30 min. The reaction was terminated with 50 μL of a stop solution per well before determining absorbance at 450 nm on an ELISA reader. The PGE2 concentration of each sample was calculated from the standard graph and calibrated with the absorbance obtained in the MTT assay to determine their inhibitory activity against PGE2 production.

| Compound | % Inhibition against PGE2 Production [%] |
| --- | --- |
| glutamine-histidine [QH] | 14.8 |
| threonine-valine [TV] | 43.9 |
| valine-tyrosine [VY] | 83.2 |
| asparagine-proline [NP] | 70.6 |
| glutamic acid-methionine [EM] | 58.4 |
| arginine-tyrosine [RY] | 67.3 |
| isoleucine-proline [IP] | 59.5 |
| methionine-tryptophan [MW] | 76.4 |
| tyrosine-tyrosine [YY] | 83.5 |
| tyrosine-phenylalanine [YF] | 12.7 |
| histidine-leucine [HL] | 36.3 |
| NCC(=O)O.N[C@@H](CC(=O)O)C(=O)O [DG, aspartic acid-glycine] | 79.7 |
| tyrosine-glutamic acid [YE] | 74.2 |
| proline-lysine [PK] | 96.3 |
| glutamic acid-tyrosine [EY] | 75.9 |
| methionine-tyrosine [MY] | 91.7 |
| proline-arginine | 76.4 |
| tryptophan-methionine [WM] | 50.6 |
| arginine-methionine [RM] | 84.7 |
| glutamic acid-histidine [EH] | 75.4 |

| Compound | % Inhibition against PGE2 Production [%] |
| --- | --- |
| tyrosine-leucine [YL] | 24.7 |
| asparagine-cysteine [NC] | 83.1 |
| tyrosine-methionine [YM] | 89.6 |
| glutamine-tyrosine [QY] | 54.6 |
| cysteine-methionine [CM] | 69.7 |
| asparagine-methionine [NM] | 89.5 |
| tyrosine-glutamine [YQ] | 13.5 |
| asparagine-serine [NS] | 31.9 |
| methionine-aspartic acid [MD] | 64.8 |
| aspartic acid-methionine [DM] | 63.1 |
| asparagine-threonine [NT] | 57.2 |
| alanine-valine [AV] | 44.8 |
| methionine-arginine [MR] | 36.5 |
| proline-asparagine [PN] | 32.7 |
| tyrosine-isoleucine [YI] | 44.3 |
| cysteine-asparagine [CN] | 92.0 |
| tyrosine-arginine | 83.7 |
| valine-lysine [VK] | 42.0 |
| threonine-methionine [TM] | 67.9 |

Same assay, conditions: 10 μg/ml dipeptide, 24 h pre-treatment, human keratinocytes, UVB 100 mJ/cm^2, medium assayed 24 h after irradiation; 0% or lower expressed as zero; 10% or more regarded as effective

| Compound | % Inhibition against PGE2 Production [%] |
| --- | --- |
| isoleucine-alanine [IA] | 38.6 |
| tyrosine-alanine [YA] | 80.2 |
| serine-alanine [SA] | 51.0 |
| histidine-alanine [HA] | 44.1 |
| asparagine-alanine [NA] | 42.0 |
| valine-praline [VP] | 50.5 |
| phenylalanine-methionine [FM] | 67.5 |
| tryptophan-alanine [WA] | 88.5 |

Same assay, conditions: 10 μg/ml dipeptide, 24 h pre-treatment, human keratinocytes, UVB 100 mJ/cm^2, medium assayed 24 h after irradiation; […]; 10% or more regarded as effective

| Compound | % Inhibition against PGE2 Production [%] |
| --- | --- |
| tryptophan-aspartic acid [WD] | 85.9 |
| glutamic acid-aspartic acid [ED] | 85.1 |
| alanine-aspartic acid [AD] | 58.3 |
| cysteine-glutamine [CQ] | 93.9 |
| valine-glutamine [VQ] | 71.2 |
| phenylalanine-leucine [FL] | 29.2 |
| glutamic acid-phenylalanine [EF] | 13.3 |
| glutamine-serine [QS] | 28.2 |
| NC(=O)CC(N)C(=O)O (centres unmarked) [NN, asparagine-asparagine] | 48.3 |
| arginine-asparagine [RN] | 10.7 |
| glutamine-glutamine [QQ] | 92.5 |
| tryptophan-phenylalanine [WF] | 81.7 |
| aspartic acid-tryptophan [DW] | 67.3 |
| asparagine-phenylalanine [NF] | 88.2 |
| aspartic acid-isoleucine [DI] | 25.9 |
| threonine-phenylalanine [TF] | 77.3 |
| aspartic acid-glutamine [DQ] | 52.4 |
| lysine-tryptophan [KW] | 76.9 |
| cysteine-serine [CS] | 53.1 |
| threonine-lysine [TK] | 39.0 |
| leucine-asparagine [LN] | 78.8 |
| serine-leucine [SL] | 81.6 |
| tryptophan-leucine [WL] | 90.2 |
| lysine-threonine [KT] | 77.8 |

| Compound | % Inhibition against PGE2 Production [%] |
| --- | --- |
| alanine-glutamine [AQ] | 69.0 |
| asparagine-glutamine [NQ] | 70.1 |
| threonine-aspartic acid [TD] | 77.6 |
| isoleucine-threonine [IT] | 18.9 |
| histidine-tryptophan [HW] | 21.6 |
| glutamic acid-threonine [ET] | 67.9 |
| serine-threonine [ST] | 79.5 |
| glutamic acid-serine [ES] | 48.8 |
| valine-leucine [VL] | 47.0 |
| aspartic acid-phenylalanine [DF] | 83.4 |
| isoleucine-serine | 66.0 |
| glutamine-asparagine [QN] | 13.9 |
| glutamic acid-glutamic acid [EE] | 86.5 |
| serine-aspartic acid [SD] | 58.4 |
| leucine-phenylalanine [LF] | 90.2 |
| phenylalanine-isoleucine [FI] | 45.8 |
| arginine-tryptophan [RW] | 34.9 |
| threonine-isoleucine [TI] | 36.3 |
| leucine-lysine [LK] | 82.8 |
| valine-arginine [VR] | 52.5 |
| alanine-isoleucine [AI] | 60.1 |
| arginine-arginine [RR] | 90.5 |
| threonine-glutamic acid [TE] | 82.5 |
| valine-phenylalanine [VF] | 12.2 |
